Measurements taken from patent publication US8461329B2, “Isoquinoline derivative” (Taisho Pharmaceutical Co., Ltd., priority 2008, dated 2013).

Target: T1, CRTH2 (KB8 cells) (Homo sapiens, UniProt Q9Y5Y4)
T1 construct: host or cells: KB8 cells (human CRTH2 expression cell)
T1 sequence (Q9Y5Y4 1-395): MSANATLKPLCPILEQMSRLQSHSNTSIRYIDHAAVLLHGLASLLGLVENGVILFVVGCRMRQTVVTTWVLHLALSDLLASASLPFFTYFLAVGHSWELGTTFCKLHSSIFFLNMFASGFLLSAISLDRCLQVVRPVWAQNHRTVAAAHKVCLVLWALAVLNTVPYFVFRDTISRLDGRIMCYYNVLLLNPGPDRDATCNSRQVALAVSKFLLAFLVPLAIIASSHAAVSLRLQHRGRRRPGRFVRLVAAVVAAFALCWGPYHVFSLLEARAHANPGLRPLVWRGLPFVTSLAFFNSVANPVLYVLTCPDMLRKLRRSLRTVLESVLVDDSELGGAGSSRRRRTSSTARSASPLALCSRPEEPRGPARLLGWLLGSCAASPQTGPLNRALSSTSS
Experiment: CRTH2 antagonist test (PGD2-induced intracellular calcium ion concentration increase in KB8 cells)
Format: cell-based
Conditions: PGD2 100 nM, Fluo-4 calcium fluorescence, read-out: CRTH2 antagonist activity IC50 value
Description: The antagonist activity of the compound of the present invention was considered by using the intracellular calcium ion concentration increase reaction induced when the prostaglandin D2 was added to KB8 cells.
Fluo-4-AM (4-(6-acetoxymethoxy-2,7-difluoro-3-oxo-9-xanthenyl)-4′-methyl-2,2′-(ethylenedioxy)dianilide-N,N,N′,N′-tetraacetic acid tetrakis(acetoxymethyl) ester (SIGMA, final concentration: 1 μM) was added to KB8 cells, and the cells were incubated at 37° C. for 30 min, washed with phosphate buffer (Invitrogen), and then suspended in Hank's balanced salt solution (Invitrogen)) containing a reaction buffer solution (10 mM HEPES (Invitrogen), and 1 mM calcium chloride (SIGMA). The suspension was dispensed in a 96 well plate (Nunc) so that 2×10^5 cells/well were placed, and the compound of the present invention and PGD2 (final concentration: 100 nM) were added. The fluorescence intensity thereof was measured over time by using FDSS6000 (Hamamatsu Photonics), and thus the maximum fluorescence intensity value “d” was obtained. The same procedure was carried out in the absence of the compound, and the maximum fluorescence intensity value “e” was obtained; and the same procedure was carried out in the absence of the compound and […], and the maximum fluorescence intensity value “f” was obtained.
The calcium ion concentration increase inhibition rate of a compound was calculated by the following calculation formula: Inhibitory rate(%)=[1−(d−f)/(e−f)]×100
That is to say, by using calcium ion concentration increase inhibitory rates of compounds to be tested having various concentrations, the IC50 value was calculated according to a dose-dependent inhibition curve analyzed by using XLfit (IDBS) as a data analysis software, and the value was defined as an indicator of the antagonist activity. In Tables, A denotes an inhibitory activity showing the IC50 value of less than 50 nM; B denotes an inhibitory activity showing the IC50 value of 50 nM or greater and less than 500 nM; C denotes an inhibitory activity showing the IC50 value of 500 nM or greater and less than 1000 nM; and D denotes an inhibitory activity showing the IC50 value of 1000 nM or greater.

Row | SMILES | IC50 [nM]
1 | O=C(O)Cc1cnc(Cc2ccc(C(=O)NCCc3cc4cc(Cl)ccc4[nH]3)cc2)c2ccccc12 [Example 234] | 5.9

Same assay, conditions: PGD2 final concentration 100 nM, Fluo-4-AM fluorescence, read-out: antagonist activity (IC50 value, inhibition of calcium ion concentration increase)

Row | SMILES | IC50 [nM]
2 | O=C(O)Cc1cnc(C(=O)c2ccc(NC(=O)c3ccc4ccccc4n3)cc2)c2ccccc12 [Example 93] | < 50
3 | O=C(O)Cc1cnc(C(=O)c2ccc(C(=O)Nc3ccc(Cl)cc3)cc2)c2ccccc12 [Example 140] | < 50
4 | N#Cc1ccc(CCNC(=O)c2ccc(Cc3ncc(CC(=O)O)c4ccccc34)cc2)cc1 [Example 223] | 50 to 500
5 | O=C(O)Cc1cnc(C(=O)c2ccc(NC(=O)c3ccc(F)c(F)c3F)cc2)c2ccccc12 [Example 52] | 50 to 500
6 | O=C(O)Cc1cnc(Cc2ccc(C(=O)NCCc3c(Cl)cccc3Cl)cc2)c2ccccc12 [Example 191] | 50 to 500
7 | O=C(O)Cc1cnc(C(=O)c2ccc(NC(=O)c3cccc4ccccc34)cc2)c2ccccc12 [Example 46] | 50 to 500
8 | O=C(O)Cc1cnc(Cc2ccc(C(=O)NCCc3cc4cc(Cl)ccc4[nH]3)cc2)c2ccccc12 [Example 234] | < 50
9 | O=C(O)Cc1cnc(C(=O)c2ccc(NC(=O)c3cc(Cl)cc(Cl)c3)cc2)c2ccccc12 [Example 37] | < 50
10 | O=C(O)Cc1cnc(Cc2ccc(C(=O)Nc3ccc(Cl)c(Cl)c3)cc2)c2ccccc12 [Example 158] | < 50
11 | O=C(O)Cc1cnc(Cc2ccc(C(=O)NCCc3c[nH]c4ccccc34)cc2)c2ccccc12 [Example 179] | < 50
12 | O=C(Cc1cnc(Cc2ccc(C(=O)NCCc3ccc(Cl)cc3)cc2)c2ccccc12)NO [Example 258, N-[2-(4-chlorophenyl)ethyl]-4-({4-[2-(hydroxyamino)-2-oxoethyl]isoquinolin-1-yl}methyl)benzamide] | ≥ 1000
13 | CS(=O)(=O)c1ccc(C(=O)Nc2ccc(C(=O)c3ncc(CC(=O)O)c4ccccc34)cc2)cc1 [Example 74] | 50 to 500
14 | COc1cccc(CCNC(=O)c2ccc(Cc3ncc(CC(=O)O)c4ccccc34)cc2)c1 [Example 197] | 50 to 500
15 | COc1cc(CCNC(=O)c2ccc(Cc3ncc(CC(=O)O)c4ccccc34)cc2)cc(OC)c1O [Example 209] | ≥ 1000
16 | O=C(O)Cc1cnc(C(=O)c2ccc(NC(=O)c3ccc(C(=O)O)cc3)cc2)c2ccccc12 [Example 79] | ≥ 1000
17 | O=C(O)Cc1cnc(C(=O)c2ccc(NC(=O)CC34CC5CC(CC(C5)C3)C4)cc2)c2ccccc12 [Example 53] | 50 to 500
18 | O=C(O)Cc1cnc(C(=O)c2ccc(NC(=O)c3cc(F)c(Cl)cc3Cl)cc2)c2ccccc12 [Example 56] | 50 to 500
19 | Cn1c(C(=O)Nc2ccc(C(=O)c3ncc(CC(=O)O)c4ccccc34)cc2)cc2ccccc21 [Example 123] | < 50
20 | O=C(O)Cc1cnc(C(=O)c2ccc(NC(=O)c3cccnc3)cc2)c2ccccc12 [Example 66] | ≥ 1000

Row | SMILES | IC50 [nM]
21 | Cc1ccc(CCNC(=O)c2ccc(Cc3ncc(CC(=O)O)c4ccccc34)cc2)cc1F [Example 204] | < 50
22 | Cc1cccc(C)c1CCNC(=O)c1ccc(Cc2ncc(CC(=O)O)c3ccccc23)cc1 [Example 217] | < 50
23 | O=C(O)Cc1cnc(Cc2ccc(C(=O)NCCc3ccc4ccccc4c3)cc2)c2ccccc12 [Example 205] | < 50
24 | O=C(O)Cc1cnc(C(=O)c2ccc(NC(=O)c3cnccn3)cc2)c2ccccc12 [Example 69] | ≥ 1000
25 | O=C(O)Cc1cnc(Cc2ccc(C(=O)NCCC3CCCCC3)cc2)c2ccccc12 [Example 187] | < 50
26 | O=C(O)Cc1cnc(Cc2ccc(C(=O)NCCc3ccc(Cl)cc3Cl)cc2)c2ccccc12 [Example 180] | < 50
27 | O=C(O)Cc1cnc(C(=O)c2ccc(NC(=O)c3c[nH]c4ncccc34)cc2)c2ccccc12 [Example 95] | 50 to 500
28 | O=C(O)Cc1cnc(C(=O)c2ccc(NC(=O)c3ccc4cccnc4n3)cc2)c2ccccc12 [Example 105] | 500 to 1000
29 | O=C(O)Cc1cnc(C(=O)c2ccc(NC(=O)c3cc4c([nH]3)CCCC4)cc2)c2ccccc12 [Example 94] | < 50
30 | O=C(O)Cc1cnc(C(=O)c2ccc(NC(=O)c3ccc(Cl)c(F)c3)cc2)c2ccccc12 [Example 31] | < 50
31 | O=C(O)Cc1cnc(Cc2ccc(C(=O)NCCC3CC3)cc2)c2ccccc12 [Example 239] | 50 to 500
32 | NC(=O)Cc1cnc(Cc2ccc(C(=O)NCCc3ccc(Cl)cc3)cc2)c2ccccc12 [Example 256, 4-{[4-(2-amino-2-oxoethyl)isoquinolin-1-yl]methyl}-N-[2-(4-chlorophenyl)ethyl]benzamide] | ≥ 1000
33 | CC(C)Oc1ccc(C(=O)Nc2ccc(C(=O)c3ncc(CC(=O)O)c4ccccc34)cc2)cc1 [Example 115] | < 50
34 | COc1cc(C(=O)Nc2ccc(C(=O)c3ncc(CC(=O)O)c4ccccc34)cc2)cc(OC)c1OC [Example 63] | 50 to 500
35 | O=C(O)Cc1cnc(Cc2ccc(C(=O)NCCc3ccc(Br)cc3)cc2)c2ccccc12 [Example 199] | < 50
36 | O=C(O)Cc1cnc(C(=O)c2ccc(NC(=O)c3c[nH]c4ccccc34)cc2)c2ccccc12 [Example 85] | < 50
37 | CCCCCCc1ccc(C(=O)Nc2ccc(C(=O)c3ncc(CC(=O)O)c4ccccc34)cc2)cc1 [Example 120] | < 50
38 | O=C(O)Cc1cnc(Cc2ccc(C(=O)NCCc3ccc(Cl)c(F)c3)cc2)c2ccccc12 [Example 221] | < 50
39 | O=C(O)Cc1cnc(Cc2ccc(C(=O)NCCc3nc4ccccc4[nH]3)cc2)c2ccccc12 [Example 248] | 50 to 500

Row | SMILES | IC50 [nM]
40 | O=C(O)Cc1cnc(C(=O)c2ccc(NC(=O)c3cc(Cl)ccc3Cl)cc2)c2ccccc12 [Example 43] | 50 to 500
41 | O=C(O)Cc1cnc(Cc2ccc(C(=O)NCCc3ccc(O)cc3)cc2)c2ccccc12 [Example 196] | 500 to 1000
42 | Cc1cccc(CCNC(=O)c2ccc(Cc3ncc(CC(=O)O)c4ccccc34)cc2)c1 [Example 166] | < 50
43 | O=C(O)Cc1cnc(C(=O)c2ccc(NC(=O)C3Cc4ccccc4C3)cc2)c2ccccc12 [Example 60] | 50 to 500
44 | O=C(O)Cc1cnc(Cc2ccc(C(=O)NCCc3ccccc3Oc3ccccc3)cc2)c2ccccc12 [Example 243] | < 50
45 | CNC(=O)c1ccc(Cc2ncc(CC(=O)O)c3ccccc23)cc1 [Example 220] | ≥ 1000
46 | O=C(O)Cc1cnc(C(=O)c2ccc(NC(=O)C3CCOCC3)cc2)c2ccccc12 [Example 81] | ≥ 1000
47 | Cc1ccc(Cl)c(C(=O)Nc2ccc(C(=O)c3ncc(CC(=O)O)c4ccccc34)cc2)c1F [Example 49] | ≥ 1000
48 | CS(=O)(=O)c1ccc(CCNC(=O)c2ccc(Cc3ncc(CC(=O)O)c4ccccc34)cc2)cc1 [Example 207] | ≥ 1000
49 | O=C(O)Cc1cnc(C(=O)c2ccc(NC(=O)c3ccc(Br)cc3)cc2)c2ccccc12 [Example 32] | < 50
50 | Cc1ccc(C(=O)Nc2ccc(C(=O)c3ncc(CC(=O)O)c4ccccc34)cc2)cc1Cl [Example 99] | < 50
51 | Cc1ccccc1C(=O)Nc1ccc(C(=O)c2ncc(CC(=O)O)c3ccccc23)cc1 [Example 26] | 50 to 500
52 | O=C(O)Cc1cnc(Cc2ccccc2OCc2ccc(Cl)cc2)c2ccccc12 [Example 252, (1-{2-[(4-chlorobenzyl)oxy]benzyl}isoquinolin-4-yl)acetic acid] | ≥ 1000
53 | O=C(O)Cc1cnc(Cc2ccc(C(=O)NCCc3ccc(Cl)cc3)cc2)c2ccc(F)cc12 [Example 253, [1-(4-{[2-(4-chlorophenyl)ethyl]carbamoyl}benzyl)-6-fluoroisoquinoline-4-yl]acetic acid] | < 50
54 | O=C(O)Cc1cnc(C(=O)c2ccc(NC(=O)c3cc(F)ccc3Cl)cc2)c2ccccc12 [Example 42] | 500 to 1000
55 | Cc1ccc(C)c(CCNC(=O)c2ccc(Cc3ncc(CC(=O)O)c4ccccc34)cc2)c1 [Example 169] | 50 to 500
56 | O=C(O)Cc1cnc(Cc2ccc(C(=O)NCCc3c(F)cccc3Cl)cc2)c2ccccc12 [Example 190] | 50 to 500
57 | O=C(O)Cc1cnc(Cc2ccc(C(=O)NCCc3ccc(F)cc3)cc2)c2ccccc12 [Example 200] | 50 to 500
58 | O=C(O)Cc1cnc(Cc2ccc(C(=O)NCCc3ccc(F)cc3Cl)cc2)c2ccccc12 [Example 233] | < 50
